This is an account of results in ChEMBL document CHEMBL4732204, “Multitargeting application of proline-derived peptidomimetics addressing cancer-related human matrix metalloproteinase 9 and carbonic anhydrase II” (Eur J Med Chem, 2021).

In one experiment the target is Carbonic anhydrase 1 (Homo sapiens, UniProt P00915). In words: Inhibition of human CA1 incubated for 15 mins by stopped-flow CO2 hydration kinetic assay based Cheng-Prusoff equation analysis.
Another experiment concerns the target Carbonic anhydrase 9 (Homo sapiens, UniProt Q16790). In words: Inhibition of human CA9 incubated for 15 mins by stopped-flow CO2 hydration kinetic assay based Cheng-Prusoff equation analysis.
A further experiment addresses Carbonic anhydrase 12 (Homo sapiens, UniProt O43570). In words: Inhibition of human CA12 incubated for 15 mins by stopped-flow CO2 hydration kinetic assay based Cheng-Prusoff equation analysis.
Experiment [1] deals with 72 kDa type IV collagenase (Homo sapiens, UniProt P08253).
Sequence of 72 kDa type IV collagenase (P08253 whole entry): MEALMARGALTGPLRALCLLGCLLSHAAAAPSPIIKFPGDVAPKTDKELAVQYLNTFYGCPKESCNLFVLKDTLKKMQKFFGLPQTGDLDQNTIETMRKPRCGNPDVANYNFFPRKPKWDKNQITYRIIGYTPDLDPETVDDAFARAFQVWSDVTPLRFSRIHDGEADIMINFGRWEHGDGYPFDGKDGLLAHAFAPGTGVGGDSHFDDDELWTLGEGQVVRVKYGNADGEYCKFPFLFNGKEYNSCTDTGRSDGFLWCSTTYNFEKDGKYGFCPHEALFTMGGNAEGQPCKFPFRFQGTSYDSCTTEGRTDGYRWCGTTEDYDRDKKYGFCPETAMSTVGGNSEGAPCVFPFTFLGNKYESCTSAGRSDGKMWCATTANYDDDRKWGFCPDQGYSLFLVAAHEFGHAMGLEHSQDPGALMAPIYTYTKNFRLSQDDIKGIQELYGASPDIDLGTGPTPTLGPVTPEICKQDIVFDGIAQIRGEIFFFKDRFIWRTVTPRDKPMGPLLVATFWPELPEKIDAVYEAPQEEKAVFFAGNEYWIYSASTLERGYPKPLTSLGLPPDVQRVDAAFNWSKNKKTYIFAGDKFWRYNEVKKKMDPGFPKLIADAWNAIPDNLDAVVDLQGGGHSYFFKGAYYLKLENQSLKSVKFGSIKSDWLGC
For experiment [2], the target named is Matrix metalloproteinase-9 (Homo sapiens, UniProt P14780). In words: Inhibition of MMP9 (unknown origin) using Mca-Lys-Pro-Leu-Gly-Leu-Dpa-Ala-Arg-NH2 as substrate incubated for 5 min followed by substrate addition and measured for 30 mins by fluorescence based assay.
Sequence of Matrix metalloproteinase-9 (P14780 whole entry): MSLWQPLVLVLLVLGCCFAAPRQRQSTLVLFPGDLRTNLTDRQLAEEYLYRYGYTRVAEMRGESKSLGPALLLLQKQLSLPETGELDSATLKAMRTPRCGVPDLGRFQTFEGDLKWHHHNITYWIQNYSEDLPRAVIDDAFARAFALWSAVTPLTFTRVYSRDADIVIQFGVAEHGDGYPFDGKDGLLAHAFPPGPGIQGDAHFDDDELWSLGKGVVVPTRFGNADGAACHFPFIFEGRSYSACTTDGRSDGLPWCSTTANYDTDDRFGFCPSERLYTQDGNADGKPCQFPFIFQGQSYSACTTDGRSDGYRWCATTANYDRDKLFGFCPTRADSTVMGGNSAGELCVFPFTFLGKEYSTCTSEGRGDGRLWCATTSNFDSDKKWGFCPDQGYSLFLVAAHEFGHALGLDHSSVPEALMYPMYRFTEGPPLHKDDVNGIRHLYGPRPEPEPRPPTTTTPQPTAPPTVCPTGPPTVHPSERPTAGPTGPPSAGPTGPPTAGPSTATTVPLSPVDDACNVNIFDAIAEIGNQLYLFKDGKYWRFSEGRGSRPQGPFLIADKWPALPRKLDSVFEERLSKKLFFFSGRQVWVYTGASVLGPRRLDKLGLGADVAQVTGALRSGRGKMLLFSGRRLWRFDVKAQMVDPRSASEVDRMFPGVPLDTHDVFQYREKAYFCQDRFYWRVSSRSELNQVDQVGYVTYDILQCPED
The next experiment has as its target Carbonic anhydrase 2 (Homo sapiens, UniProt P00918). In words: Inhibition of human CA2 incubated for 15 mins by stopped-flow CO2 hydration kinetic assay based Cheng-Prusoff equation analysis.

SMILES strings stand for the structures.

Sequence of Carbonic anhydrase 1 (P00915 whole entry): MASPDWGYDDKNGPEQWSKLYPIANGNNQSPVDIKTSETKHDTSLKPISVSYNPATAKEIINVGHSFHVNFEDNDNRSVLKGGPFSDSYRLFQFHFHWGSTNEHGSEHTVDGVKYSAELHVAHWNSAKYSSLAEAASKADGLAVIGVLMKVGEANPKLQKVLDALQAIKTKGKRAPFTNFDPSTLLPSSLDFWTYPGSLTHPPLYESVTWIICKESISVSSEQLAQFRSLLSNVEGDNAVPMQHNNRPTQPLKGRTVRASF
Sequence of Carbonic anhydrase 12 (O43570 whole entry): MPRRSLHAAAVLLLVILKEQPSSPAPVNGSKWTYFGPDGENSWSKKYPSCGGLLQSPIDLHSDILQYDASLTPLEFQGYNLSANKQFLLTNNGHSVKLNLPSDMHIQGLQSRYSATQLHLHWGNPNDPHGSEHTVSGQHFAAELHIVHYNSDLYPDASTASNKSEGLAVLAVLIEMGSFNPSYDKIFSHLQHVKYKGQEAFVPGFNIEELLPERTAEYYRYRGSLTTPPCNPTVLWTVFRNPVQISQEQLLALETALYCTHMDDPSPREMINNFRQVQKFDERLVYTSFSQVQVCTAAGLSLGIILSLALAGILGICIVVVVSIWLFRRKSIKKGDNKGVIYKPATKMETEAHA

Turning to `O=C(NO)[C@H]1C[C@H](NS(=O)(=O)c2ccc(-c3ccccc3)cc2)CN1S(=O)(=O)c1ccc(OC(F)(F)F)cc1`, the Ki (commonly a measure of affinity in units of concentration, obtained from inhibition or displacement) at Carbonic anhydrase 1 was above 100 µM; on Carbonic anhydrase 9 it was above 100 µM; on Carbonic anhydrase 12, above 100 µM; in experiment [1] it was above 100000 nM; in experiment [2], above 100000 nM; at Carbonic anhydrase 2, above 100 µM.

For the compound `COc1ccc(S(=O)(=O)N2CCC[C@@H]2C(=O)NO)cc1`, the Ki was above 100 µM at Carbonic anhydrase 1, 20 nM in experiment [2] and above 100 µM at Carbonic anhydrase 2.

In the case of `O=C(NO)[C@H]1C[C@@H](NS(=O)(=O)c2ccc(-c3ccccc3)cc2)CN1S(=O)(=O)c1ccc(Cl)c(Cl)c1`, the Ki on Carbonic anhydrase 1 is above 100 µM; at Carbonic anhydrase 9, above 100 µM; on Carbonic anhydrase 12, 67.2 µM; in experiment [1], above 10000 nM; in experiment [2], 541 nM; at Carbonic anhydrase 2 it was 24.8 µM.

`O=C(Nc1ccc(S(=O)(=O)N2CCC[C@@H]2C(=O)NO)cc1)OCc1ccccc1`: the Ki at Carbonic anhydrase 1 was above 100 µM; in experiment [1], 2.16 nM; in experiment [2], 473 nM; on Carbonic anhydrase 2, above 100 µM.

For `O=C(/C=C/c1ccco1)N[C@H]1C[C@H](C(=O)NO)N(S(=O)(=O)c2ccc(Cl)c(Cl)c2)C1`, the Ki on Carbonic anhydrase 1 is above 100 µM; in experiment [2], 324 nM; on Carbonic anhydrase 2 it was above 100 µM.

Consider `O=C(N[C@H]1C[C@H](C(=O)NO)N(S(=O)(=O)c2ccc(Cl)c(Cl)c2)C1)c1cccs1`, for which the Ki at Carbonic anhydrase 1 is above 100 µM; in experiment [1], above 10000 nM; in experiment [2] it was above 10000 nM; on Carbonic anhydrase 2, above 100 µM.

With `O=C(NO)[C@H]1C[C@H](NS(=O)(=O)c2ccc(-c3ccccc3)cc2)CN1S(=O)(=O)c1ccc(-c2ccccc2)cc1`, the Ki at Carbonic anhydrase 1 is above 100 µM; on Carbonic anhydrase 9, 21.4 µM; at Carbonic anhydrase 12, 8.82 µM; in experiment [1], 54 nM; in experiment [2] it was 294 nM; at Carbonic anhydrase 2, above 100 µM.

On to `O=C(NO)[C@H]1[C@@H](OCc2ccccc2)CCN1S(=O)(=O)c1ccc(Cl)c(Cl)c1`, for which the Ki at Carbonic anhydrase 1 is above 100 µM; in experiment [2], above 10000 nM; on Carbonic anhydrase 2, above 100 µM.

As to `COc1ccc(S(=O)(=O)N2C[C@@H](NS(=O)(=O)c3ccc(-c4ccccc4)cc3)C[C@@H]2C(=O)O)cc1`, the Ki at Carbonic anhydrase 1 was 8.4 µM; at Carbonic anhydrase 9, 20.7 µM; at Carbonic anhydrase 12 it was 9.19 µM; in experiment [1], above 100000 nM; in experiment [2], above 100000 nM; at Carbonic anhydrase 2 it was 6.13 µM.

Take `O=C(NO)[C@H]1C[C@H](NS(=O)(=O)c2ccc(-c3ccccc3)cc2)CN1S(=O)(=O)c1ccc(Cl)c(Cl)c1`: the inhibition constant Ki on Carbonic anhydrase 1 was above 100 µM; at Carbonic anhydrase 9, above 100 µM; on Carbonic anhydrase 12, 98.5 µM; in experiment [1], 328 nM; in experiment [2], 57 nM; on Carbonic anhydrase 2, 6.68 µM.

For `CCCCCCO[C@H]1CCN(S(=O)(=O)c2ccc(Cl)cc2)[C@H]1C(=O)NO`, the Ki is above 100 µM at Carbonic anhydrase 1, above 10000 nM in experiment [1], above 10000 nM in experiment [2] and above 100 µM on Carbonic anhydrase 2.

`O=C(NO)[C@H]1CCCN1S(=O)(=O)c1ccc(C#Cc2ccccc2)cc1`: the Ki at Carbonic anhydrase 1 was above 100 µM; in experiment [1] it was 0.25 nM; in experiment [2], 0.83 nM; at Carbonic anhydrase 2 it was above 100 µM.

With `O=C(NO)[C@H]1C[C@H](NS(=O)(=O)c2ccc(-c3ccccc3)cc2)CN1S(=O)(=O)c1ccc([N+](=O)[O-])cc1`, the Ki on Carbonic anhydrase 1 is 52.9 µM; at Carbonic anhydrase 9, 23.3 µM; on Carbonic anhydrase 12, above 100 µM; in experiment [2], above 100000 nM; on Carbonic anhydrase 2, 44.8 µM.

Turning to `COc1ccc(S(=O)(=O)N2C[C@H](NC(=O)C(C)(C)C)C[C@@H]2C(=O)NO)cc1`, the Ki is above 100 µM on Carbonic anhydrase 1, 26 nM in experiment [1], 123 nM in experiment [2] and above 100 µM on Carbonic anhydrase 2.

As to `O=C(N[C@@H]1C[C@H](C(=O)NO)N(S(=O)(=O)c2ccc(Cl)c(Cl)c2)C1)c1cccs1`, the Ki on Carbonic anhydrase 1 was above 100 µM; in experiment [1], 131 nM; in experiment [2], 91 nM; on Carbonic anhydrase 2 it was above 100 µM.

Consider `O=C(Nc1ccc(S(=O)(=O)N2CCC[C@@H]2C(=O)NO)cc1)c1ccc([N+](=O)[O-])cc1`, for which the Ki on Carbonic anhydrase 1 is above 100 µM; in experiment [1], 0.087 nM; in experiment [2], 0.11 nM; at Carbonic anhydrase 2 it was above 100 µM.

Take `COc1ccc(S(=O)(=O)N2C[C@@H](NS(=O)(=O)c3ccc(-c4ccccc4)cc3)C[C@@H]2C(=O)NO)cc1`: the Ki at Carbonic anhydrase 1 was above 100 µM; at Carbonic anhydrase 9, above 100 µM; on Carbonic anhydrase 12 it was above 100 µM; in experiment [1], 406 nM; in experiment [2] it was 482 nM; at Carbonic anhydrase 2 it was above 100 µM.

As for `O=C(NO)[C@H]1C[C@H](n2cc(-c3ccccc3)nn2)CN1S(=O)(=O)c1ccc(Cl)c(Cl)c1`, the Ki at Carbonic anhydrase 1 is above 100 µM; in experiment [2], 1550 nM; at Carbonic anhydrase 2 it was above 100 µM.

As to `CS(=O)(=O)N1C[C@@H](NS(=O)(=O)c2ccc(-c3ccccc3)cc2)C[C@@H]1C(=O)NO`, the Ki was above 100 µM on Carbonic anhydrase 1; above 100 µM at Carbonic anhydrase 9; 47 µM on Carbonic anhydrase 12; 2260 nM in experiment [1]; 3880 nM in experiment [2]; above 100 µM on Carbonic anhydrase 2.

Consider `O=C(Nc1ccc(C(=O)Nc2ccc(S(=O)(=O)N3CCC[C@@H]3C(=O)NO)cc2)cc1)OCc1ccccc1`, for which the Ki at Carbonic anhydrase 1 was above 100 µM; in experiment [1], 0.044 nM; in experiment [2], 32 nM; on Carbonic anhydrase 2, above 100 µM.

In the case of `O=C(NO)[C@H]1C[C@@H](n2cc(-c3ccccc3)nn2)CN1S(=O)(=O)c1ccc(Cl)c(Cl)c1`, the Ki at Carbonic anhydrase 1 was above 100 µM; in experiment [2], above 10000 nM; at Carbonic anhydrase 2, above 100 µM.
